In patent US8658649B2, “Kinase inhibitor” (Sanofi, priority 2006, dated 2014):

How the values were obtained:
[1] = test system: Collagen-induced arthritis (CIA); assay: Rat collagen induced arthritis, combination dosing with Methotrexate; format: in vivo
Protocol: Immunization and Challenge: Female Lewis rats were immunized on day 0 and challenged on day 7 with cII from bovine nasal mixed with Freund's incomplete adjuvant at a final collagen concentration of 1.0 mg/ml. The animals were injected at the base of the tail with 400 μg of cII. Combination Dosing Regimen: Rats were dosed with the compound of Formula I (3.0 and 10 mg/kg, p.o., bi.d.) or Methotrexate (MTX, 0.1 and 0.2 mg/kg, p.o., q.d.) as monotherapy or in combinations consisting of each dose of the compound of Formula I with each dose of MTX starting on day 6 and continuing through day 21. Joint Pathology Ankle joint swelling was measured to the nearest 0.01 mm by using electronic digital calipers. Measurements were recorded 7 times throughout the study starting on day 6 and ending on day 21. Body weights were recorded on the same days. On day 21, hind paws were removed at the hairline just above the ankle and fixed in 10% neutral buffered formalin. MicroCT analysis: Ankle joints were examined using a cone-beam μCT scanner. A scout view scan was obtained first for selection of the examination volume of the specimens, followed by positioning, measurement and computational reconstruction. In ankle joints, the ratio of bone surface to bone volume, describing the complexity of bone surface in a certain volume, was analyzed. Statistical Analysis For joint swelling/inflammation, data were analyzed using Everstat v.5 software and a 2-way repeated measure ANOVA with Dunnett's post test. MicroCT data were analyzed by Everstat using a 1-way ANOVA and Newman-Keuls multiple comparison test.

Syk = target: T1, Syk (Homo sapiens, UniProt P43405); assay: Syk substrate phosphorylation, Streptavidin FlashPlate; format: biochemical; conditions: 7.77 nM Flag-tagged Syk, PGT-Biotin substrate, 33P-ATP
T1 construct: Flag; made in house
Source text: • Assay Name: Spleen Tyrosine (Y) Kinase • Short Name: Syk • Assay Format: Substrate Phosphorylation • Detection Format: Streptavidin FlashPlate • Modulation: Inhibition
Streptavidin FlashPlate Plus microplates from PerkinElmer Life Sciences™ are designed for in-plate radiometric assays. The interior of each well is permanently coated with a thin layer of polystyrene-based scintillant followed by covalent binding of Streptavidin. These plates are suitable for a wide variety of assay applications which utilize biotinylated capture molecules. Poly (Glu,Tyr) 4:1 (PGT) is a random copolymer that can act as a substrate for tyrosine-specific protein kinases. The assay measures the phosphorylation of PGT-Biotin substrate by Syk. The enzyme transfers the [γ^33P]-phosphate from [γ^33P]-ATP to the polymeric substrate. The assay was run in solution in a non-binding 384-well plate. After stopping the reaction using phosphoric acid, the reaction mixture was transferred to a 384-well Streptavidin Flashplate. The biotinylated substrate was captured onto the plate and other reagents including hot ATP were washed away. Each well was then counted for radioactivity.
The enzyme reaction was run in a 384-well non-binding plate. […] Radioactivity was counted on a Top Count™ scintillation counter. […]

IC50 (Syk): 1.7 nM
SMILES: CCc1c(-c2ccc(C(C)(C)O)cc2)[nH]c2nccnc12 [compound of Formula I, 2-[4-(7-Ethyl-5H-pyrrolo[2,3-b]pyrazin-6-yl)-phenyl]-propan-2-ol]
disease severity as measured by joint swelling/inflammation ([1]; 3.0 mg/kg monotherapy): failed to significantly impact on disease severity | bone erosion, MicroCT ([1]; 3 mg/kg monotherapy, vs vehicle): significant decrease was not observed | ankle swelling/inflammation ([1]; 10 mg/kg monotherapy, vs vehicle, days 15 through 21): significantly reduced ankle swelling/inflammation | bone erosion, MicroCT ([1]; 10 mg/kg po bid monotherapy, vs vehicle): significant decrease in bone erosion
